{"source": "patent US8673548B2", "about": "“Genes and polypeptides relating to breast cancers” (Oncotherapy Science, Inc., priority 2006, dated 2014)", "key": {"CDK1-cyclin B1": {"target": "T1, CDK1-cyclin B1 (Homo sapiens, UniProt P06493)", "T1 construct": "purchased New England Biolabs", "assay": "in vitro kinase assay, CDK1-cyclin B1 phosphorylation of PBK/TOPK", "type": "biochemical", "conditions": "peptide 0-20 μM", "description": "After 30 minutes incubation at 30° C., the reactions were terminated by addition of SDS-sample buffer. After boiling, the protein samples were electrophoresed and autoradiographed.\n(§1) To inhibit the phosphorylation of PBK/TOPK at Thr9 by CDK1-cyclin B1, we designed permeable peptide (pp1-18) identical to the N-terminus (1-18 amino acids) of PBK/TOPK ([…]-G-[…]: SEQ ID NO: 99) was synthesized by Sigma-Aldrich. The efficacy of the peptide blocking the CDK1-cyclin B1-induced phosphorylation of PBK/TOPK was estimated by in vitro kinase assay according to in vitro kinase section. […] The phosphorylation of PBK/TOPK and cyclin B1 proteins were observed by SDS-PAGE and autoradiography. For the cell proliferation assay, T47D and HMEC cells were seeded at 1.3×10^4 cells in a 12-well plate, respectively. At the following day, each concentration (0, 2.5, 5, and 10 μM) of pp1-18 peptide was treated everyday, and cell viability was measured by MTT assay at 5th day. A significance of the pp 1-18 peptide to suppress T47D cell growth was statistically evaluated by the Student's t-test. To inhibit the phosphorylation of PBK/TOPK in mitotic cells by using pp1-18 peptide, T47D cells were seeded at 1×10^5 cells in a 60 mm dish. […]"}, "T47D cells [1]": {"test_system": "T47D cells", "assay": "phase contrast microscopy of cells treated with pp1-18", "type": "cell-based, human", "conditions": "50 μM peptide"}, "T47D cells [2]": {"test_system": "T47D cells", "assay": "FACS cell cycle analysis with nocodazole and pp1-18", "type": "cell-based, human", "conditions": "24 hours after treatment of nocodazole, 10 μM peptide", "excerpt": "as §1, with “dish. Two days after incubation, both nocodazole (0.3 μg/mL) and the permeable peptide (10 μM) were treated for further 18 or 24 hours before collection, and then phosphorylation of PBK/TOPK was investigated by western blotting using anti-PBK/TOPK monoclonal antibody and FACS analysis.” for “dish.”"}, "PBK/TOPK": {"test_system": "PBK/TOPK", "assay": "western blot of PBK/TOPK phosphorylation in nocodazole-treated mitotic cells with pp1-18", "type": "cell-based, human", "conditions": "T47D; nocodazole plus 10 μM peptide, 18 or 24 hours", "excerpt": "as §1, with “dish. Two days after incubation, both nocodazole (0.3 μg/mL) and the permeable peptide (10 μM) were treated for further 18 or 24 hours before collection, and then phosphorylation of PBK/TOPK was investigated by western blotting using anti-PBK/TOPK monoclonal antibody and FACS analysis.” for “dish.”"}, "HMEC cells": {"test_system": "HMEC cells", "assay": "cell proliferation MTT assay with pp1-18 peptide", "type": "cell-based, human", "conditions": "0, 2.5, 5 and 10 μM every day; MTT at 5th day", "excerpt": "as §1, with “dish. Two days after incubation, both nocodazole (0.3 μg/mL) and the permeable peptide (10 μM) were treated for further 18 or 24 hours before collection, and then phosphorylation of PBK/TOPK was investigated by western blotting using anti-PBK/TOPK monoclonal antibody and FACS analysis.” for “dish.”"}, "T47D cells [3]": {"test_system": "T47D cells", "assay": "cell proliferation MTT assay with pp1-18 peptide", "type": "cell-based, human", "conditions": "0, 2.5, 5 and 10 μM every day; MTT at 5th day", "excerpt": "as §1, with “dish. Two days after incubation, both nocodazole (0.3 μg/mL) and the permeable peptide (10 μM) were treated for further 18 or 24 hours before collection, and then phosphorylation of PBK/TOPK was investigated by western blotting using anti-PBK/TOPK monoclonal antibody and FACS analysis.” for “dish.”"}}, "note": "“Also recorded” adds a separate entry of the source.", "data": [{"substance": "RRRRRRRRRRR-G-MEGISNFKTPSKLSEKKK (RRRRRRRRRRRGMEGISNFKTPSKLSEKKK; N-terminal poly-arginine (R11) and glycine linker; An artificialy designed dominant negative) [pp1-18]", "values": [{"measurement": "phosphorylation of recombinant PBK/TOPK protein by CDK1-cyclin B1", "setting": "CDK1-cyclin B1", "value": "diminished in dose-dependent manner"}, {"measurement": "cellular morphology", "setting": "T47D cells [1]", "value": "long intercellular bridge; also recorded: prolonged midbodies by abnormal cytokinesis"}, {"measurement": "shift to G2/M phase of cell cycle", "setting": "T47D cells [2]", "value": "blocked shift to G2/M phase"}, {"measurement": "phosphorylation of PBK/TOPK in mitotic cells", "setting": "PBK/TOPK", "value": "drastically reduced"}, {"measurement": "growth of HMEC cells", "setting": "HMEC cells", "value": "did not affect the growth; also recorded: no effect"}, {"measurement": "growth of T47D breast cancer cells", "setting": "T47D cells [3]", "value": "significantly suppressed cell growth; also recorded: clearly suppressed the growth"}]}]}
